From ChEMBL document CHEMBL5465560, “Selectivity Literature for EUbOPEN Chemogenomic Library” (2024)

How the values were obtained:
[1] = target: Mitogen-activated protein kinase 14 (Homo sapiens, UniProt Q16539); experiment: Selectivity interaction (KinomeScan (DiscoverX)) EUB0000045b MAPK14
[2] = target: T1, Tyrosine-protein kinase ZAP-70 (Homo sapiens) (UniProt P43403); experiment: Selectivity interaction (KinomeScan (DiscoverX)) EUB0000695a ZAP70; conditions: at 100 nM
T1 sequence (whole entry): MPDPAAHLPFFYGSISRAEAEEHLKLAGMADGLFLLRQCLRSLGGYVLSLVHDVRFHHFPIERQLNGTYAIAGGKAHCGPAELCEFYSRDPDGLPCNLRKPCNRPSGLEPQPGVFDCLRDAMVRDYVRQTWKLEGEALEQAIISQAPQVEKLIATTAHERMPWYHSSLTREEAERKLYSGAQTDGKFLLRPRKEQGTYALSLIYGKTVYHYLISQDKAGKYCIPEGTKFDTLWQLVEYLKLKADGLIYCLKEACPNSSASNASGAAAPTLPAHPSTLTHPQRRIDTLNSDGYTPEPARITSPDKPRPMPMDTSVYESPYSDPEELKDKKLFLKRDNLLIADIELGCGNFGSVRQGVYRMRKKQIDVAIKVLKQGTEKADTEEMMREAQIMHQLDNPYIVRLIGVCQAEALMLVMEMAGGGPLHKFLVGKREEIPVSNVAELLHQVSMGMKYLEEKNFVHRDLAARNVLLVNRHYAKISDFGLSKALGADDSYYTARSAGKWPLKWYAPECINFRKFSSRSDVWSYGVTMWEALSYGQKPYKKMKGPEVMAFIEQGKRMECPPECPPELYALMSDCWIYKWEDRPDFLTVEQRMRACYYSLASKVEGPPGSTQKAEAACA

[3] = target: T2, Protein kinase C iota type (Homo sapiens) (UniProt P41743); experiment: Selectivity interaction (Kinase panel (Z-LYTE Assay)) EUB0001632a PRKCI; conditions: at 10 µM
T2 sequence (whole entry): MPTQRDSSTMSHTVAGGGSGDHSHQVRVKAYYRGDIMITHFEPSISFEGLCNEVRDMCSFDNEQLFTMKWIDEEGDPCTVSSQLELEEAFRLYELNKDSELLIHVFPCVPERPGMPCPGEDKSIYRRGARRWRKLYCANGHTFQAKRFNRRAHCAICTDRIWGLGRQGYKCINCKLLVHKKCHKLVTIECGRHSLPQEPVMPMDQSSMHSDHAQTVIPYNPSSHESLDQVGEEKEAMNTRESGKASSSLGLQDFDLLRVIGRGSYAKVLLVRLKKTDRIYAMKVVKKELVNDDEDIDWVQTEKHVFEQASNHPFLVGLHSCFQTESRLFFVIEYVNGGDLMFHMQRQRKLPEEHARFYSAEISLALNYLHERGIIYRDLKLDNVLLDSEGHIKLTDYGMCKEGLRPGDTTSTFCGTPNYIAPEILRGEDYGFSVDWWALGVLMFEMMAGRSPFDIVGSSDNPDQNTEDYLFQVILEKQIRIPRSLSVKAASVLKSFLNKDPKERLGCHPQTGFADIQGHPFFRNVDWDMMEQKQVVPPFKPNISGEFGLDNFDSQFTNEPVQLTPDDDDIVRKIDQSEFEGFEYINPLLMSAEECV

[4] = target: Serine/threonine-protein kinase PLK3 (Homo sapiens, UniProt Q9H4B4); experiment: Selectivity interaction (Millipore kinase profiler) EUB0000124b PLK3; conditions: at 10 µM
[5] = target: T3, Dual specificity mitogen-activated protein kinase kinase 7 (Homo sapiens) (UniProt O14733); experiment: Selectivity interaction (ProQinase) EUB0000171b MAP2K7
T3 sequence (whole entry): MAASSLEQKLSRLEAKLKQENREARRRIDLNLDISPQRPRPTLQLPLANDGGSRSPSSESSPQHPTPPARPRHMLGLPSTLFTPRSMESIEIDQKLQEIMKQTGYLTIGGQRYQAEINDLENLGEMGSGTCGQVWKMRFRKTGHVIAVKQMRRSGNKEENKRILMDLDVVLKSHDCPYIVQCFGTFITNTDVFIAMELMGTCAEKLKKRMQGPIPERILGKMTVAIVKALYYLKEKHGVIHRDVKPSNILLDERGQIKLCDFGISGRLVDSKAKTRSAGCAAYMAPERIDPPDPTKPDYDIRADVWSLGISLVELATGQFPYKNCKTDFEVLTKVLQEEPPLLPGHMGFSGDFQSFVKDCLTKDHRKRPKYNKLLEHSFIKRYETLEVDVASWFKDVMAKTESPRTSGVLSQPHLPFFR

[6] = target: Myosin light chain kinase, smooth muscle (Homo sapiens, UniProt Q15746); experiment: Selectivity interaction (KinomeScan (DiscoverX)) EUB0000607a MYLK; conditions: at 10 µM
[7] = target: T4, Mitogen-activated protein kinase 13 (Homo sapiens) (UniProt O15264); experiment: Selectivity interaction (Kinase panel (DSF assay)) EUB0001558a MAPK13
T4 sequence (whole entry): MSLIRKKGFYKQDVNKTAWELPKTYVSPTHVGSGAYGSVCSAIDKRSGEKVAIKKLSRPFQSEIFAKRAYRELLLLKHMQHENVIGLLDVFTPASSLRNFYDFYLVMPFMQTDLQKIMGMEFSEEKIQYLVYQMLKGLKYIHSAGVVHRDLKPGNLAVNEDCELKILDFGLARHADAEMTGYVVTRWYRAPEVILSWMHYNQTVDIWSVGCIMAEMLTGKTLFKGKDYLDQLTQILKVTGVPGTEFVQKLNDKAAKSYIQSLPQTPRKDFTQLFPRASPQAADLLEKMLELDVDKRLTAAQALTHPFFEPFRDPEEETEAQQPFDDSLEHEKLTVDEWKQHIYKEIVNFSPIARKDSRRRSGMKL

[8] = target: Serine/threonine-protein kinase WNK1 (Homo sapiens) (UniProt Q9H4A3); experiment: Selectivity interaction (ActivX KiNativ screen (kinase selectivity in THP-1 cell lysates)) EUB0000639a WNK1; type: subcellular; conditions: lysate, at 5 µM

Sequence of Mitogen-activated protein kinase 14 (Q16539 whole entry): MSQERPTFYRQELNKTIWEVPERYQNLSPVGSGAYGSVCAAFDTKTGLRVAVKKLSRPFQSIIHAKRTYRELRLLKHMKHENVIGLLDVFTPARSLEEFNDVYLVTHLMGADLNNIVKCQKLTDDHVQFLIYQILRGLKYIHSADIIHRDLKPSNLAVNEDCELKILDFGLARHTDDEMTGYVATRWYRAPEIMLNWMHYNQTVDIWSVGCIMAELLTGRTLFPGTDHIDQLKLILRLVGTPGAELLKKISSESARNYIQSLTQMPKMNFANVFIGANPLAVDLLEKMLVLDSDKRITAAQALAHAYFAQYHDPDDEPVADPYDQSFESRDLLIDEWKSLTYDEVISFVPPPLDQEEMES
Sequence of Serine/threonine-protein kinase PLK3 (Q9H4B4 whole entry, looked up): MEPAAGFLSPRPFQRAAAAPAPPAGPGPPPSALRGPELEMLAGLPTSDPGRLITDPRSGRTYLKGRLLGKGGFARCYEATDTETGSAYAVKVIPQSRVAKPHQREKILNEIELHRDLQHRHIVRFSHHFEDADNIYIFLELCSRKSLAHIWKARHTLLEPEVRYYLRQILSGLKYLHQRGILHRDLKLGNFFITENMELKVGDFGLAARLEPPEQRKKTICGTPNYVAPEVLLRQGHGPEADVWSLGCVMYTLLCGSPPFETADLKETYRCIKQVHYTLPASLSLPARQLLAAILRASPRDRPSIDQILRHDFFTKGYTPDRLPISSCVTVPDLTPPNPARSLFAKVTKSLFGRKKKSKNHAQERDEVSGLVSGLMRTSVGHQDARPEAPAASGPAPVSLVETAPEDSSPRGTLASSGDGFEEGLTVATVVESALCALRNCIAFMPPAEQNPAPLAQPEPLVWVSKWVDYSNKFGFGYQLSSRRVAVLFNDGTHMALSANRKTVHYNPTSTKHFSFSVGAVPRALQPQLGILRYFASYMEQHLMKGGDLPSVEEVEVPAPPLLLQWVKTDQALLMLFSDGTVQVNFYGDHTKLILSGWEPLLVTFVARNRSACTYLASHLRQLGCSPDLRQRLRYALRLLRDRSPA
Sequence of Myosin light chain kinase, smooth muscle (Q15746 whole entry): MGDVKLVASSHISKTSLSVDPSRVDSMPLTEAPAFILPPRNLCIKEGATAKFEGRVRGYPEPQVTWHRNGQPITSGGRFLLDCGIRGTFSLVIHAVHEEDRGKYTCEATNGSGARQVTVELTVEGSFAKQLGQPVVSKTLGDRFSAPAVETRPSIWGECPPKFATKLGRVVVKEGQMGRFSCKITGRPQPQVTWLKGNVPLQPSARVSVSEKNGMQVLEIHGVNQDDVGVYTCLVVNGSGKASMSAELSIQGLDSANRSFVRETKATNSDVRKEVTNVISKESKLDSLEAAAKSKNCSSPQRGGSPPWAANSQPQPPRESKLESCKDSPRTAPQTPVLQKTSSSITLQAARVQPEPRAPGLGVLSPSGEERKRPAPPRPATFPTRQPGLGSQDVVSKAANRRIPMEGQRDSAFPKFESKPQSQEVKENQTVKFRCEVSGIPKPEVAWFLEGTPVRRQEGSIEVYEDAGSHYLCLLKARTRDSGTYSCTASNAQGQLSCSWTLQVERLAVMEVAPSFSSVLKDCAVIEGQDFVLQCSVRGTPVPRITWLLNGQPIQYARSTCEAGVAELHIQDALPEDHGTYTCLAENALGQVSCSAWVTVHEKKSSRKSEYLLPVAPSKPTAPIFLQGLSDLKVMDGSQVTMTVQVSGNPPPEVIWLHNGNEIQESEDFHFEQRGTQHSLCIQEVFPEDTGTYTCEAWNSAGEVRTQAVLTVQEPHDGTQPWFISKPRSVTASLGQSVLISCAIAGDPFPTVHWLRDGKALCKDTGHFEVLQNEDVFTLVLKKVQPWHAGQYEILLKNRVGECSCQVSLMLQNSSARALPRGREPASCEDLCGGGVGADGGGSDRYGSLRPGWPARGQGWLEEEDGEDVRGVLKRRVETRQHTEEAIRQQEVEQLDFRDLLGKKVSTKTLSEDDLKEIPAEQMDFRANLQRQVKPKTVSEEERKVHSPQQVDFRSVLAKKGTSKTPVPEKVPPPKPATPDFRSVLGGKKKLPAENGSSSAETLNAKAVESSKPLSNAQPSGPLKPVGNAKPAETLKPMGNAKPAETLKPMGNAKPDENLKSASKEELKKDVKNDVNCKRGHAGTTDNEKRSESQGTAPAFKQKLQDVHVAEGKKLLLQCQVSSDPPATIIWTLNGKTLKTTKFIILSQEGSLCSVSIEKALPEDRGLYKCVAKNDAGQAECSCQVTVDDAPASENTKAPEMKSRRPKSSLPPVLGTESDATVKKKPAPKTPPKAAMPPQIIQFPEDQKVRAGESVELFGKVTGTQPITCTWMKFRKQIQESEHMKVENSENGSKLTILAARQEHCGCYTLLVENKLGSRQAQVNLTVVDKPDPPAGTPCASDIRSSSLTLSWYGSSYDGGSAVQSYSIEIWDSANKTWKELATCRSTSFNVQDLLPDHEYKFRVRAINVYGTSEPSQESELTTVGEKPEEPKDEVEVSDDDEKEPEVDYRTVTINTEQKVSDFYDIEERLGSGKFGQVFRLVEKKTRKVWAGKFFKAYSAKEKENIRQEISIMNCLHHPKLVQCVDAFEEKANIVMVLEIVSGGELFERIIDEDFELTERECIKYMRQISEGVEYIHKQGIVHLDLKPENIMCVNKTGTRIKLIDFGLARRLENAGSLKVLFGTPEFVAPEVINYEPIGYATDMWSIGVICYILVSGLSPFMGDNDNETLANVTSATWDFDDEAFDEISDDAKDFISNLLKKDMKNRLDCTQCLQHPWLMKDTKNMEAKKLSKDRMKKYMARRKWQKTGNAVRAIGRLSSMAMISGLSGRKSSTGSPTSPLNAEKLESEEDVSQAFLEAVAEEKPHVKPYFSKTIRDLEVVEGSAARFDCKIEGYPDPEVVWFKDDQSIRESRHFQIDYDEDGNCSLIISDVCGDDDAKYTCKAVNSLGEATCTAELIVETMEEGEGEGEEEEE

## C=CC(=O)Nc1cc(-n2c(=O)ccc3cnc4ccc(-c5ccc(NS(C)(=O)=O)cc5)cc4c32)ccc1C
[1]; at 1 µM
  % of control: 98%
[1]; at 10 µM
  % of control: 100%

## Cc1cc(F)c(C(=O)Nc2cccc(-c3nncn3C(C)C)n2)cc1-n1cnc(C2CC2)c1
[2]
  % of control: 100%

## Cn1cc(-n2cnc3c(NCc4nc5cc(Cl)c(Cl)cc5[nH]4)nc(N4CCOCC4)nc32)cn1
[3]
  % of control: 8.02%

## CC(=O)Nc1cccc(-n2c(=O)n(C3CC3)c(=O)c3c(Nc4ccc(I)cc4F)n(C)c(=O)c(C)c32)c1
[4]
  % of control: 91%

## C=CC(=O)Nc1cccc(C(=O)Nc2ccc(Nc3cc(-c4[nH]c(SC)nc4C)ccn3)cc2)c1
[5]; at 1 µM
  % of control: 45%
[5]; at 5 µM
  % of control: 39%

## CNC(=O)Nc1ccc(-c2nc(N3CC4CCC(C3)O4)c3cnn(C4CCC5(CC4)OCCO5)c3n2)cc1
[6]
  % of control: 100%

## CC(C)(O)[C@H](F)CN1Cc2cc(NC(=O)c3cnn4cccnc34)c(N3CCOCC3)cc2C1=O
[7]
  dTM: -0.3 K

## CC[C@@H]1[C@H](F)C(=O)N[C@@H]1COc1nccc2cc(C(N)=O)c(OC)cc12 [ZIMLOVISERTIB]
[8]
  % of inhibition: -14.5%
